Columns and labels:
[1] = in vivo; details: mouse, po
[2] = test system: APO-induced climbing in mice; assay: Apomorphine-induced climbing; type: in vivo; details: Mus musculus, po, apomorphine 1.0 mg/kg sc
Protocol: Apomorphine-Induced Climbing [1-3].
Animals were placed in Plexiglas cages
for evaluating locomotor activity.
5.3 Catalepsy Test [1-3].
Catalepsy was evaluated on a metal
(§1) A mean immobility score of 30 s was used
(§2) as the criterion for the presence of catalepsy.

[3] = test system: MK-801-induced hyperactivity in mice; assay: MK-801-induced hyperactivity; type: in vivo; details: Mus musculus, po, MK-801 0.3 mg/kg sc, read-out: MK-80: MK-801-induced hyperactivity ED50
Protocol: Apomorphine-Induced Climbing [1-3].
Animals were placed in Plexiglas cages
for evaluating locomotor activity.
5.3 Catalepsy Test [1-3].
Catalepsy was evaluated on a metal
as §1, §2

[4] = biological target: hERG potassium channels (Homo sapiens, UniProt Q12809); assay: hERG potassium channel block, patch clamp in HEK cells
[5] = in vivo; details: mouse
[6] = biological target: D2 receptor (Rattus norvegicus, UniProt P61169); assay: D2 receptor radioligand binding (3H-spiperone); details: for Ki: Receptor Affinity Ki ± SEM D2, rat striatum, 3H-spiperone, mean ± SEM of three experiments; for potency ratio between D2 and 5-HT1A, 5-HT2A: ratio of Ki values
[7] = biological target: T1, 5-HT1A receptor (Homo sapiens, UniProt P08908); assay: Intrinsic activity, FLIPR calcium assay, HEK293/5-HT1A; type: cell-based; details: antagonist mode
T1 construct: expressed in transfected cells; host or cells: HEK293
T1 sequence (P08908 1-422): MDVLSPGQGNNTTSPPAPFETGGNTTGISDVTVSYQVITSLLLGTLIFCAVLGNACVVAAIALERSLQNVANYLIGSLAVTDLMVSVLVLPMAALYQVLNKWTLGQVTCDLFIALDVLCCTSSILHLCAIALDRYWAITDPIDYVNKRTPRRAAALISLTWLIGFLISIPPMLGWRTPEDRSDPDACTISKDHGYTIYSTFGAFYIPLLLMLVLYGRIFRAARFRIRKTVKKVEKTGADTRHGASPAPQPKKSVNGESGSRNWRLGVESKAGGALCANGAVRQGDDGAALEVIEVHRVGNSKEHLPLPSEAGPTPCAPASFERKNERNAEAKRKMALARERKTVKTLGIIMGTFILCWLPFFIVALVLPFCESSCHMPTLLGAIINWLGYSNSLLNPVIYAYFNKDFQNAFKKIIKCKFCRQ

[8] = biological target: 5-HT2A receptor (Rattus norvegicus, UniProt P14842); assay: 5-HT2A receptor radioligand binding (3H-ketanserin); details: Receptor Affinity Ki ± SEM 5-HT2A
[9] = biological target: T2, 5-HT2A receptor (Homo sapiens, UniProt P28223); assay: Intrinsic activity, FLIPR calcium assay, HEK293/5-HT2A; type: cell-based; details: for inhibition at 10 µM: HEK293, read-out: Inhibition (10 μM, %), 5-HT2A, antagonist mode, 10 μM, n = 3
T2 construct: expressed in transfected cells; host or cells: HEK293

[10] = biological target: α1 receptor; assay: α1 receptor radioligand binding (3H-prazosin); details: rat cerebral cortex, mean ± SEM of three experiments, read-out: Receptor Affinity Ki ± SEM α1
[11] = biological target: H1 receptor (Cavia porcellus, UniProt P31389); assay: H1 receptor radioligand binding (3H-mepyramine); details: guinea pig cerebellum, mean ± SEM of three experiments, read-out: Receptor Affinity Ki ± SEM H1
[12] = biological target: T3, D2L receptor (Homo sapiens, UniProt P14416); assay: Intrinsic activity, FLIPR calcium assay, HEK293/D2L; type: cell-based
T3 construct: expressed in transfected cells; host or cells: HEK293

[13] = biological target: D3 receptor (Rattus norvegicus, UniProt P19020); assay: D3 receptor radioligand binding (3H-7-OH-DPAT)
[14] = biological target: T4, D3 receptor (Homo sapiens, UniProt P35462); assay: Intrinsic activity, FLIPR calcium assay, HEK293/ACTOne D3; type: cell-based
T4 construct: expressed in transfected cells; host or cells: HEK293/ACTOne

[15] = biological target: T5, 5-HT2C receptor (Rattus norvegicus, UniProt P08909); assay: 5-HT2C receptor radioligand binding (3H-mesulergine); details: rat brain cortex, mean ± SEM of three experiments, read-out: Receptor Affinity Ki ± SEM 5-HT2C
T5 sequence (P08909 33-460): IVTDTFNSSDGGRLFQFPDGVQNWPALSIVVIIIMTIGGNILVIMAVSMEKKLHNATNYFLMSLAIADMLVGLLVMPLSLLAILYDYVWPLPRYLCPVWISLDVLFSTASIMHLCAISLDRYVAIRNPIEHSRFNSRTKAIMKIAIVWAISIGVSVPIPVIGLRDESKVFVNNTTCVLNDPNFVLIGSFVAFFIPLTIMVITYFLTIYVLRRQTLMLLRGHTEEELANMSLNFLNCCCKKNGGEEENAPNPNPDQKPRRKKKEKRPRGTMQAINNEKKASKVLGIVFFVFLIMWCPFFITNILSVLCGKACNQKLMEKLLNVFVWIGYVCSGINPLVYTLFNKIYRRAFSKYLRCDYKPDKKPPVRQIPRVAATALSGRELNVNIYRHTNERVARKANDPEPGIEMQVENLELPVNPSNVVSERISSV

[16] = rat brain cortex, 3H-ketanserin, mean ± SEM of three experiments

Sequence of 5-HT2A receptor (Rattus norvegicus, UniProt P14842) (P14842 whole entry): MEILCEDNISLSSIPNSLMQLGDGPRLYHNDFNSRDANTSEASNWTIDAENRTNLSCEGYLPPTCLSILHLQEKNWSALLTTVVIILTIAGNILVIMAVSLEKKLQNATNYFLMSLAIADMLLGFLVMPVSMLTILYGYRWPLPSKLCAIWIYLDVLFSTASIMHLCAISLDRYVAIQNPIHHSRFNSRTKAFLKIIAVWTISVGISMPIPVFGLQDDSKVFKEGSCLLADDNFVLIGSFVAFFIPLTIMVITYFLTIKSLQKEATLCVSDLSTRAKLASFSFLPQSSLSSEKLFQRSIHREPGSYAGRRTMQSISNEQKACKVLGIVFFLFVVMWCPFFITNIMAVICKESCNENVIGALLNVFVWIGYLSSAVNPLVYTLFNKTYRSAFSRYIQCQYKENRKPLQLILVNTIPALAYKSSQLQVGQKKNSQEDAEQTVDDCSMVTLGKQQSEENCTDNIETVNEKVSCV
Sequence of H1 receptor (P31389 whole entry): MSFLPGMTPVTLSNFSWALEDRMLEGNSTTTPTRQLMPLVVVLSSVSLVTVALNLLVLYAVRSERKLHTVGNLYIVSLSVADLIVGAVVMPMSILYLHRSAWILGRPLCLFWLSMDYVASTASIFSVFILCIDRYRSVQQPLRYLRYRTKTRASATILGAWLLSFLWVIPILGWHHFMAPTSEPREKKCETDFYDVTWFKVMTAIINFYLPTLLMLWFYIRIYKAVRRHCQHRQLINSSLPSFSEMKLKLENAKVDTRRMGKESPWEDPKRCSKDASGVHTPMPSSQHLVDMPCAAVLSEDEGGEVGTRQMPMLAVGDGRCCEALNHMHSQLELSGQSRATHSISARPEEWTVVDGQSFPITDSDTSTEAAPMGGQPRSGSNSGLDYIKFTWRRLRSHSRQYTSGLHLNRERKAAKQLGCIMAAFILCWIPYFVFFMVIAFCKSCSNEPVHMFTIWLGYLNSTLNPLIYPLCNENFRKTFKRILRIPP
T2 sequence (P28223 whole entry): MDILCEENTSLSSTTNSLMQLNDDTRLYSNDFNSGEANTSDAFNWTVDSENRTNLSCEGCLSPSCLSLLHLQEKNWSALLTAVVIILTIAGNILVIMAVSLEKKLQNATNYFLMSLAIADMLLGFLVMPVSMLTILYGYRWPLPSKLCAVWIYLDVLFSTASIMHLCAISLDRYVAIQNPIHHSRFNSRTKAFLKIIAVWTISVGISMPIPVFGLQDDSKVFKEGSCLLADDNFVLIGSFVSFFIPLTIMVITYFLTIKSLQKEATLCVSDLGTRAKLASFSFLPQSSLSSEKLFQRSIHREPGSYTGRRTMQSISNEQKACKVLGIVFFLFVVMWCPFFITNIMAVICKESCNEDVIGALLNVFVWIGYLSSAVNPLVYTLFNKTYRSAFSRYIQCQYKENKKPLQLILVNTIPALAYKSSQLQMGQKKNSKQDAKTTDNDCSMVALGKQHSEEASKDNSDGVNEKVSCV
Sequence of hERG potassium channels (Q12809 whole entry): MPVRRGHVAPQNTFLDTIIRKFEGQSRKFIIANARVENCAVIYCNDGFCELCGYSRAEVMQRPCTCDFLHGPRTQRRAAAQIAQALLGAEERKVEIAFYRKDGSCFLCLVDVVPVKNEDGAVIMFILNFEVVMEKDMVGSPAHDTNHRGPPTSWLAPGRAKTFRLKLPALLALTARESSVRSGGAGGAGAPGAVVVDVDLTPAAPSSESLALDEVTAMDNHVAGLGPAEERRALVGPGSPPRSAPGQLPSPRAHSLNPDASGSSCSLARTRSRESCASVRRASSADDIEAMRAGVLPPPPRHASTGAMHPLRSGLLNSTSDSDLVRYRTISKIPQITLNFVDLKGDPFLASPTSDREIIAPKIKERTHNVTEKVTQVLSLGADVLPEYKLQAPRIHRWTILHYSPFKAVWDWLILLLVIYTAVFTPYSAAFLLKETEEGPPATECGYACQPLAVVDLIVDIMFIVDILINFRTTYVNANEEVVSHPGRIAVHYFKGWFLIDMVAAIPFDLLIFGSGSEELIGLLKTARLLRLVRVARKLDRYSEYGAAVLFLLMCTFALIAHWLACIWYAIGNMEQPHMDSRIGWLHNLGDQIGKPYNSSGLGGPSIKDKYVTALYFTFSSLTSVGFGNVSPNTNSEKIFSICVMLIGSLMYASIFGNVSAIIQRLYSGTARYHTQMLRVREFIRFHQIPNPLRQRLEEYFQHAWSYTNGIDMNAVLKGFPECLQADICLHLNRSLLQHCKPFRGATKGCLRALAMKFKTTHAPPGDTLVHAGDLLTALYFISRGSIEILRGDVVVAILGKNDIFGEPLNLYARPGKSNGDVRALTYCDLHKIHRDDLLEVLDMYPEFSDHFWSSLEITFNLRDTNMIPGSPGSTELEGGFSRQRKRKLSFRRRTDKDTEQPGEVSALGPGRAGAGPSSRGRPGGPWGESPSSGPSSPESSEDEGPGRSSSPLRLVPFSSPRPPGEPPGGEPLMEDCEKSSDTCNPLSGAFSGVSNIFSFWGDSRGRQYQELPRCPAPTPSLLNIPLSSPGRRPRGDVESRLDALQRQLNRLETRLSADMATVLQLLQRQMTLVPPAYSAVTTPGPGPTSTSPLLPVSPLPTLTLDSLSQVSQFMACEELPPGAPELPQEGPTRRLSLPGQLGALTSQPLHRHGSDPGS
Sequence of D2 receptor (P61169 whole entry): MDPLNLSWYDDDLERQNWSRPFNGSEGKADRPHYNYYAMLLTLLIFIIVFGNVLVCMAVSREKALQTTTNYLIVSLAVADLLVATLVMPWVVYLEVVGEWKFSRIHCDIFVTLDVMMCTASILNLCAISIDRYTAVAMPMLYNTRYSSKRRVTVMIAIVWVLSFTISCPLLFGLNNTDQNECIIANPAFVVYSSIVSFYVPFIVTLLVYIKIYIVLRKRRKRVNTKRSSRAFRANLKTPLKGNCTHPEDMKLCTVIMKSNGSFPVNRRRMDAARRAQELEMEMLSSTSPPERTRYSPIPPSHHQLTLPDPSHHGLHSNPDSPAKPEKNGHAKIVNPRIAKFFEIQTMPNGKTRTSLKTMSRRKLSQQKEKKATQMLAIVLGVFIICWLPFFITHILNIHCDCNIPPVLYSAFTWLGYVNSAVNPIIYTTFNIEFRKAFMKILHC
Sequence of D3 receptor (Rattus norvegicus, UniProt P19020) (P19020 whole entry): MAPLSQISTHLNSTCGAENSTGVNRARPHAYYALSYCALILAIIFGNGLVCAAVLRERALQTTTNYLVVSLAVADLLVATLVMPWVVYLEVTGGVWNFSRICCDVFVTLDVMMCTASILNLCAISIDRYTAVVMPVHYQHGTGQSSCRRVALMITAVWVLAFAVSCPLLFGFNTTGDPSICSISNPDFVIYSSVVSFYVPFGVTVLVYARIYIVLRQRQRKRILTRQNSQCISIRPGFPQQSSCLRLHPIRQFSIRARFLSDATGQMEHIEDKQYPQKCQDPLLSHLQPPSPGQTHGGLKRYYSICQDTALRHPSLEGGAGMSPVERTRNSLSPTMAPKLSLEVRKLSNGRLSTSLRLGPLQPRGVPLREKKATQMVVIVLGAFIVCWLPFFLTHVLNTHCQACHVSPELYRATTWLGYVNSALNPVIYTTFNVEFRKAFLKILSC
T3 sequence (P14416 whole entry): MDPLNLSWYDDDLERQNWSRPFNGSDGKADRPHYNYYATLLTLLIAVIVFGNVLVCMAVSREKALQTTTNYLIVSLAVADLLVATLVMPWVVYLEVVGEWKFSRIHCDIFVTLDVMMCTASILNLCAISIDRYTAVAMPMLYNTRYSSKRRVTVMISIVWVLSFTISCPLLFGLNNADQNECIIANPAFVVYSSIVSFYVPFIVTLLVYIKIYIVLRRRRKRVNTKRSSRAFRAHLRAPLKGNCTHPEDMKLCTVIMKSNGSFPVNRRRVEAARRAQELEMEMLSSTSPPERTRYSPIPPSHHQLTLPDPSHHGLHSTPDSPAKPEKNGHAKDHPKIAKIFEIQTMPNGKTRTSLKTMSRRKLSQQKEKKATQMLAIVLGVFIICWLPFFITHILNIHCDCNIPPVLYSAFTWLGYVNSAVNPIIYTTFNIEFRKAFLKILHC
T4 sequence (P35462 whole entry): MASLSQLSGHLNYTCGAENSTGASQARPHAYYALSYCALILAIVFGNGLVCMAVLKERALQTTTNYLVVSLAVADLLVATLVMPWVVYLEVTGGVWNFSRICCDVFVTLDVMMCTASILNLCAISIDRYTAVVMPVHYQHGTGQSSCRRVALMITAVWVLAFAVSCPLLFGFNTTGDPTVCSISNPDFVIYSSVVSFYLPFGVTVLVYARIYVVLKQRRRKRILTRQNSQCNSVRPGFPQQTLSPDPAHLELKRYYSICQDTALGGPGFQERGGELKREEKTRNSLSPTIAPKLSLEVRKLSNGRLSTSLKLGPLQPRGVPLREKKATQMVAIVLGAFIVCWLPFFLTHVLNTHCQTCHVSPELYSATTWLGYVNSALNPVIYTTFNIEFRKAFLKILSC

| SMILES | ED50 [1] [mg/kg] | ED50 [2] [mg/kg] | ED50 [3] [mg/kg] | IC50 [4] [µM] | Ki [6] [nM] | inhibition at 10 µM [9] [%] | Ki [10] [nM] | Ki [11] [nM] | Ki [13] [nM] | Ki [15] [nM] | melting point [°C] | potency ratio between D2 and 5-HT1A, 5-HT2A [6] | Ki [8, 16] [nM] | also measured |
| --- | --- | --- | --- | --- | --- | --- | --- | --- | --- | --- | --- | --- | --- | --- |
| CN1CCN(C2=Nc3cc(Cl)ccc3Nc3ccccc32)CC1 [Clozapine, reference compound] | 50 | 17.9 | 2.28 |  |  |  |  |  |  |  |  |  |  |  |
| CC1(C)CC(=O)c2ccc(OCCCCN3CCC(c4noc5cc(F)ccc45)CC3)cc2O1 [Compound 6j, 7-(4-(4-(6-Fluorobenzo[d]isoxazol-3-yl)piperidin-1-yl)butoxy)-2,2-dimethylchroman-4-one] | 56.8 | 0.19 | 0.16 | 3.77 ± 0.298 | 12.1 ± 1.5 | > 90 | 237 ± 86.4 | 939 ± 101 | 25.4 ± 3.1 | 566 ± 75.4 |  |  |  | ED50 ([1]; Kun Ming (KM)): 58.4 mg/kg; LD50 at 24 h [5]: > 2000 mg/kg; IC50 ([7]; 5-HT1A): 201 nM; inhibition at 10 µM ([7]; HEK293, 5-HT1A, 10 μM, n = 3): > 90%; Ki [8]: 3.2 ± 0.4 nM; IC50 [9]: 195 nM; IC50 [12]: 8.9 nM; inhibition at 10 µM ([12]; HEK293, read-out: Inhibition (10 μM, %), D2L, antagonist mode, 10 μM, n = 3): > 90%; IC50 [14]: 31.5 nM; inhibition at 10 µM ([14]; HEK293, read-out: Inhibition (10 μM, %), D3, antagonist mode, 10 μM, n = 3): > 90% |
| O=C1CC2(CCCC2)Oc2cc(OCCCCN3CCC(c4noc5cc(F)ccc45)CC3)ccc21 [Compound 9d, 7-(4-(4-(6-Fluorobenzo[d]isoxazol-3-yl)piperidin-1-yl)butoxy)spiro[chromane-2,1′-cyclopentan]-4-one] |  |  |  | 3.38 ± 0.352 | 15.7 ± 1.9 |  | 162 ± 57.1 | 784 ± 98.3 | 42.6 ± 5.3 | 426 ± 47.8 | 103 to 105 | less than 5 | 8.5 ± 0.7 |  |
| O=C1CC2(CCCCC2)Oc2cc(OCCCN3CCC(c4noc5cc(F)ccc45)CC3)ccc21 [Compound 9g, 7-(3-(4-(6-Fluorobenzo[d]isoxazol-3-yl)piperidin-1-yl)propoxy)spiro[chromane-2,1′-cyclohexan]-4-one] |  |  |  | 3.02 ± 0.291 | 18.4 ± 1.8 |  | 138 ± 39.8 | 909 ± 78.5 | 35.2 ± 2.8 | 401 ± 55.6 | 96 to 98 | less than 5 | 9.1 ± 1.1 |  |
| O=C1CC2(CCCCC2)Oc2cc(OCCCCN3CCC(c4noc5cc(F)ccc45)CC3)ccc21 [Compound 9h, 7-(4-(4-(6-Fluorobenzo[d]isoxazol-3-yl)piperidin-1-yl)butoxy)spiro[chromane-2,1′-cyclohexan]-4-one] |  |  |  | 3.98 ± 0.411 | 17 ± 2.3 |  | 102 ± 50.6 | 819 ± 91.8 | 38.6 ± 3.7 | 528 ± 68.5 |  |  | 7.3 ± 0.4 |  |
| O=C(c1ccc(F)cc1)C1CCN(CCn2c(=O)[nH]c3ccccc3c2=O)CC1 [ketanserin, reference compound] |  |  |  |  |  | 98.2 ± 2.6 |  |  |  |  |  |  |  |  |
